Data set [1] is described as follows: 10-day diet-induced obese C57bl/6 mice study. Format: in vivo. To be noted: DIO C57BL/6J mice, oral, 10 days. The procedure:
Male DIO C57BL/6J mice from Taconic were maintained on high fat diet D12492 containing 60% kCal of mostly saturated fats (Research Diets Inc.) for 4 week from 6-week old. Test compounds were prepared in 0.5% hydroxypropyl methyl cellulose for oral dosing at 10 mg/kg or 30 mg/kg, either q.d. or b.i.d., as noted in the results table below. After 10-days of treatment, body weight change are recorded. Plasma liver enzyme levels (ALT and AST) were also determined.
Compound #6 of the present invention was tested according to the procedure as described above, with results as listed in Table 4, below. In the results presented below, * indicates a calculated p value<0.05 vs. vehicle-treated group.

The target of data set [2] is T1, SCD1 (Homo sapiens (Human), UniProt O00767). In words: SCD1 14C-palmitate assay in A431 cells. To be noted: read-out: A431 cells 14C-PA IC50. Format: cell-based. The procedure: Human epithelial carcinoma A431 cells were seeded at 400,000 cells per well in 48-well tissue culture plate and treated with 2 cycles of fasting in low glucose medium (DMEM, Cellgro #10-014-CV, 1 g/L glucose, 2% Charcoal Filtered FBS) for 24 hours; and re-feeding with high glucose medium for 24 hours (DMEM, Cellgro #10-013-CM, 4.5 g/L glucose, 10% Charcoal Filtered FBS and 0.05 mg/mL Lilly Humulin R, Cat.#, HI-210). Prior to running the assay, the cells were washed twice with high glucose medium (400 μL), followed by addition of 250 μL assay buffer (DMEM, 4.5 g/L glucose, 0.05 mg/mL Human Insulin, 0.1% Fatty Acid Free BSA) to each well. Then, 100 μL of assay buffer containing 20 μM Palmitic Acid, 0.05 μCi ^14C Palmitic Acid (Perkin Elmer, NEC075H) and test compound (at selected concentration) was added to each well. The cells were then Incubated at 37° C. and 5% CO2 tissue culture incubator for 4 hours, followed by extensive washes with pre-chilled PBS. The cell plates were then frozen at −20° C. overnight. After thawing out the plates, 100 μL of 1N KOH was added to each well and the plates were incubated at 37° C. for 30 mins. Cell lysates were transferred to 1 mL Eppendorf tubes and incubated at 95° C. for 1 hour, followed by addition of 10 μL formic acid and 220 μL acetonitrile. The tubes were then centrifuged at 12,000 rpm and the supernatant dried under N2 for 2-3 hours. Dried extract was re-suspended in 60 μL hexane and loaded onto TLC plates (pre-coated with 10% AgNO3 in acetonitrile). The TLC plates were placed into glass running chamber containing 200 mL running solution (100 mL running solution: 92.5 mL chloroform, 6 mL methanol, 750 μL acetic acid, 750 μL dH2O). After running, the TLC plates were air dried and scanned on Bioscan AR-2000 for quantification of ^14C-palmitioleate and ^14C-palmitate peaks. Area under the curve of the peaks were used to calculate product/substrate ratio, an index of SCD1 activity.

Data set [3] addresses T1, SCD1. In words: SCD1 13C-palmitic acid assay in A431 cells. Format: cell-based. To be noted: read-out: A431 cells 13C-PA IC50. On the procedure:
Human epithelial carcinoma A431 cells were seeded at 100,000 cells/well in complete growth medium (DMEM, Cellgro #10-013-CM, 4.5 g/L glucose, 10% FBS) in the presence of 0.05 mg/mL human insulin (Hannas Pharmaceutical Supply Co Inc, Humanlin 100 U/ml, 4 mg/ml) in 96-well tissue culture plate. […] The cells were then returned to the tissue culture incubator (37° C. and 5% CO2) for 4 hrs. At the end of incubation, the cells were washed three times with 200 μL/well Hanks buffer (HBSS) and then stored at −20° C. until extraction.
For fatty acid extraction, after thawing out the plates, 40 μL of 1N KOH (containing 5 μM of internal standard 7,7,8,8-D4 palmitate) was added to each well and cell plates were incubated at 37° C. for 30 minutes. […] Acetonitrile (100 μL) was then added to extract fatty acids, followed by centrifugation at 3000 rpm for 10 minutes. 75 μL of extract was then transferred to a new glass vial in a 96-well cluster plate. 5 μL was injected for LC/MS analysis for detection of ^13C-palmitic acid and ^13C-palmitoleic acid. Formation of product ^13C-palmitoleic acid was determined as an index of SCD1 activity.
LC/MS analysis was performed as following. An Agilent 1100 Liquid Chromatographic System (Palo Alto, Calif.) consisting of a binary pump, a degasser and an autosampler was used. Separation of free fatty acids was performed on a Zorbax SB—C8 column (2.1×50 mm, particle size=3.5 μm). An isocratic elution was carried out with 10 mM triethylamine acetate in water:acetonitrile (3:7) at a flow rate of 0.3 mL/min. The column temperature was set at 30° C. and the sample injection volume was 5 μL. The LC run cycle was 4 min, A Micromass triple-quadrupole Quattro Micro mass […] (Waters, Beverly, Mass.) was interfaced with the LC system through a Z-spray electrospray ion source and was operated in the negative ion mode. Nitrogen was used as nebulizing gas, desolvation gas and cone curtain gas and argon was chosen as collision gas. The triple quadrupole MS source parameters were set as follows: capillary voltage, 3200V; cone voltage, 25V; extractor 2V, source temperature, 120° C.; desolvation temperature, 300° C.; cone gas flow, 50 L/h; and desolvation gas flow, 700 L/h. […] MassLynx software version 4.0 was used for system control and data processing. The signal of U—^13C-palmitoleic acid was normalized to an internal standard.

The target of data set [4] is SCD1 (Rattus norvegicus (Rat), UniProt P07308). As to the kind of experiment: SCD1 enzymatic assay in rat liver microsomes (RLM). Format: biochemical.

“And” between values parts separate entries of the source, which are not always exact repeats. Equal entries are not always repeated. Marks after values point to notes of the source that are not given here.

Chain of SCD1 (Rattus norvegicus (Rat), UniProt P07308) (P07308 whole entry): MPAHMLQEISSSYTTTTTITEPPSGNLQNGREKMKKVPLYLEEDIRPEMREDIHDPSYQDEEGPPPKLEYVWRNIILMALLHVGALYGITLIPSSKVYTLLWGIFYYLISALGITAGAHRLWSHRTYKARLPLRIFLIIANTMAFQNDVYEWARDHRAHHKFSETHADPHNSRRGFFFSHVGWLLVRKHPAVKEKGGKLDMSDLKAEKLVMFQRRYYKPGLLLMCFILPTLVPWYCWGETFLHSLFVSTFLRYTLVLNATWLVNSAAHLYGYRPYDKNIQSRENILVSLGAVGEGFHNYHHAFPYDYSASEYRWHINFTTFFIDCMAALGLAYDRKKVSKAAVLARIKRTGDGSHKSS
T1 sequence (O00767 whole entry): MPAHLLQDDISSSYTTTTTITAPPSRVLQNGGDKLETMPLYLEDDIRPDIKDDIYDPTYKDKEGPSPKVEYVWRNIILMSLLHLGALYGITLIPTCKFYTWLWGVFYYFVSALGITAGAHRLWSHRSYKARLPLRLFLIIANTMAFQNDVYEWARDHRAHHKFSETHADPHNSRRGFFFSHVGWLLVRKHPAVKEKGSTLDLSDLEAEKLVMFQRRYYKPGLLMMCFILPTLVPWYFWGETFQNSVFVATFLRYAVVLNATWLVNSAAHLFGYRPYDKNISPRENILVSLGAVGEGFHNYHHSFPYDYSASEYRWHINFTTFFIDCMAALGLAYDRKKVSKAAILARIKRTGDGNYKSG

Consider `Cc1csc(NC(=O)N2CCC(c3noc4ccc(F)cc34)CC2)n1` [Compound 6, 4-(5-fluorobenzo[d]isoxazol-3-yl)-N-(4-methylthiazol-2-yl)-piperidine-1-carboxamide], for which the “Body weight change (g)” value in data set [1] (10 mg/kg, q.d) is 0.00 ± 0.36* g; in data set [1] (30 mg/kg, bid), −0.69 ± 0.38 * g; in data set [1] (30 mg/kg, q.d), 0.01 ± 0.24* g. Further, the “Plasma ALT (U/L)” value in data set [1] (10 mg/kg, q.d) stood at 57 ± 7 U/L; in data set [1] (30 mg/kg, bid), 41 ± 3 U/L; in data set [1] (30 mg/kg, q.d) it was 68 ± 12 U/L. Further, the “Plasma AST (U/L)” value in data set [1] (10 mg/kg, q.d) was determined as 89 ± 7 U/L; in data set [1] (30 mg/kg, bid), 102 ± 17 U/L; in data set [1] (30 mg/kg, q.d), 93 ± 7 U/L. Also, the figures for the 50% inhibitory concentration (IC50) at SCD1 [2], at SCD1 [3] and on SCD1 [4] were 290 nM, 54 nM and 140 nM, respectively. In addition, the “% Inh. @ 1 μM” value on SCD1 [4] (1 μM test compound) is 95% and 77%. 1 µM produced 88% inhibition against SCD1 [4] (1 μM test compound).

These data come from patent US9238658B2, “Substituted piperidinyl-carboxamide derivatives useful as SCD 1 inhibitors” (Janssen Pharmaceutica NV, priority 2011, dated 2016).
